Where two headings read alike, the source gives them in different places.
Columns and labels:
[1] = tested on: HSV-2 MS; experiment: in vivo lethal challenge model, HSV-2 MS; conditions: for ED50: Human alphaherpesvirus 2, in Mus musculus, po, 120 h, read-out: in vivo lethal challenge model HSV-2 MS ED50, p.o., mice, 3 times a day for 5 days, survival; for in vivo lethal challenge model HSV-2 MS ED50: p.o., mice, 3 times a day for 5 days, survival
Method: (§1) 6-week old female mice, strain BALB/cABom, were purchased from a commercial breeder (Bomholtgard Breeding and Research Centre Ltd).
(§2) The animals were anaesthetized with diethyl ether (Merck) in a sealed glass vessel. 50 μl of a dilution of the virus stock (dose for infection 5×10^4 Pfu) were introduced with an Eppendorf pippette into the nose of the anaesthetized animals. This dose leads to death of 90-100% of the animals due to a generalized infection with prominent respiratory and central nervous symptoms after on average between 5 and 8 days.
(§3) 6 hours after the infection, the animals were treated with doses of 0.1-100 mg/kg of body weight 3 times day at 7.00 h, 14.00 h and 19 h over a period of 5 days. The substances were dissolved in DMSO and resuspended in Tylose/PBS (Hoechst) (final concentration 1.5% DMSO, 0.5% Tylose in PBS).
(§4) After the last administration, the animals were observed further and the times of death were recorded.

[2] = tested on: HSV-1 Walkie; experiment: in vivo lethal challenge model, HSV-1 Walki; conditions: for ED50: Human alphaherpesvirus 1, in Mus musculus, po, 120 h, read-out: in vivo lethal challenge model HSV-1 Walkie ED50; for in vivo lethal challenge model HSV-1 Walkie ED50: p.o., mice, 3 times a day for 5 days, survival
Method: as §1, §2, §3, §4

[3] = tested on: PRV; experiment: cells; type: cell-based, porcine (PRV); conditions: for IC50: read-out: IC50 porcine PRV
[4] = tested on: BHV; experiment: in vitro viral replication assay, bovine BHV; type: cell-based; conditions: for IC50: in vitro viral replication assay; for SI bovine BHV: selectivity index SI=(CC50/IC50);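 on SI bovine BHV: ratio of CC50 to antiviral IC50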
[5] = tested on: clinical isolates (39 HSV-1 and 19 HSV-2 isolates); experiment: activity on clinical isolates; type: cell-based, herpes simplex virus; conditions: 39 HSV-1 and 19 HSV-2 isolates tested
[6] = tested on: Active substance-resistant HSV-1 (F) mutants; conditions: read-out: IC50 Active substance-resistant HSV-1 (F) mutants
[7] = biological target: HSV-1 helicase-primase heterodimer enzyme complex (UL5-UL52-6xHis) (Human herpesvirus 1, UniProt P10189+P10236); experiment: HSV-1 DNA-dependent ATPase assay; conditions: for type of ATPase inhibition (mechanism): wild-type HSV-1 (F) helicase-primase
From the text: HSV-1 DNA-dependent ATPase assay (this in vitro assay permits testing for inhibition of the HSV-1 helicase-primase).
The HSV-1 helicase-primase heterodimer enzyme complex was [lacuna] with the aid of the recombinant baculovirus expression system in doubly infected Sf9 (Spodoptera frugiperda) cells. One recombinant baculovirus codes for the UL5 helicase gene and the second virus codes for the manipulated UL52-6×His primase gene.
The genes were amplified from the HSV-1 (F) genome by PCR (American Tissue Culture Collection ATCC VR-733) and cloned into the baculovirus (UL5→pFASTBAC1; UL52→pFASTHTb) as described in detail in the instruction manual for BAC-TO-BAC Baculovirus Expression Systems, Life-Technologies.
The purified heterodimeric helicase-primase complex (200 ng) was incubated with 1 μg of DNA (Sigma D3287 or D8681) in 20 mM HEPES (pH 7.6; 4-(2-hydroxyethyl)-1-piperazineethanesulphonic acid), 5 mM MgCl2, 0.2-5 mM ATP, 100 μg of BSA (bovine serum albumin) per ml, 10% glycerol, 1 mM DTT (DL-dithiothreitol) and, where appropriate, inhibitor in the appropriate concentration at 37° C. for 60 min.
The inhibition of the DNA-dependent ATPase activity was calculated from the change in the absorption in the presence and absence of inhibitor.
The Ki values were calculated with the assistance of the Sigma Plot software 4.0 and the method of nonlinear curve regression.
For this purpose, the ATPase activity of the helicase-primase heterodimer (detection through formation of inorganic phosphate (Pi)) was measured in the presence of saturated DNA concentrations and varying ATP and inhibitor concentrations, as explained in the ATPase assay section.

[8] = tested on: Wild-type HSV-1 (F); experiment: in vitro viral replication assay, wild-type HSV-1 (F); type: cell-based, herpes simplex virus 1; conditions: for SI Wild-type HSV-1 (F): selectivity index SI=(CC50/IC50);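 on SI Wild-type HSV-1 (F): ratio of CC50 to antiviral IC50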
[9] = tested on: HSV-2 G; experiment: in vitro viral replication assay, human HSV-2 G; type: cell-based, herpes simplex virus 2; conditions: for IC50: in vitro viral replication assay; for SI human HSV-2 G: selectivity index SI=(CC50/IC50);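 on SI human HSV-2 G: ratio of CC50 to antiviral IC50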
[10] = in vitro viral replication assay, read-out: IC50 Wild-type HSV-1 (F)

HSV-1 helicase-primase heterodimer enzyme complex (UL5-UL52-6xHis), sequence (P10236 whole entry): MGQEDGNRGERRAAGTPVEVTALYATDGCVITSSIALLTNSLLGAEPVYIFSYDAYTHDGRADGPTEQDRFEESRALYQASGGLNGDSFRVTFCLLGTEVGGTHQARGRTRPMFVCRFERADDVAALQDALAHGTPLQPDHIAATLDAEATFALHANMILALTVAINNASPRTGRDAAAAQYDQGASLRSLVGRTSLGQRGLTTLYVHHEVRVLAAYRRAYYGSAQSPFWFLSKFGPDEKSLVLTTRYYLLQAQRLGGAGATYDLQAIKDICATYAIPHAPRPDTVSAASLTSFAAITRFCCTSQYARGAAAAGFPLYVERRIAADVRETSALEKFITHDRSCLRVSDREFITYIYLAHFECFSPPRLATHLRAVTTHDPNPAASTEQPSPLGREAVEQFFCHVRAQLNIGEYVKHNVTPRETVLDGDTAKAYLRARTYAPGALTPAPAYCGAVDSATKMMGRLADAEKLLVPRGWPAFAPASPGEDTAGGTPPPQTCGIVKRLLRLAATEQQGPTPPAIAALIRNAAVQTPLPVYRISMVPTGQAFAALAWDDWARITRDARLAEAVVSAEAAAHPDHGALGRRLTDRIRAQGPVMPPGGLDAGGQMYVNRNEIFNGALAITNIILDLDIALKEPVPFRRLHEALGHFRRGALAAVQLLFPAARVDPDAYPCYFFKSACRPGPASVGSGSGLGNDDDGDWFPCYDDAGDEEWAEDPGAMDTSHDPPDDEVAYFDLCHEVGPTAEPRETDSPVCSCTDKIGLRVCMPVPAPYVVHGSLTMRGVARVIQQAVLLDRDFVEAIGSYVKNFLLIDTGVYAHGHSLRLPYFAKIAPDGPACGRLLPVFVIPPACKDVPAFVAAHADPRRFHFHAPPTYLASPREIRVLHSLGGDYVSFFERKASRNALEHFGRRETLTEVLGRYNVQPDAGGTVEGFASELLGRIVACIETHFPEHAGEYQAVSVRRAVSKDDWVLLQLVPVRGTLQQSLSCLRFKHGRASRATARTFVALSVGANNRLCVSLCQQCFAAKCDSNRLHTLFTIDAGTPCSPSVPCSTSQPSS
HSV-1 helicase-primase heterodimer enzyme complex (UL5-UL52-6xHis), sequence (P10189 whole entry): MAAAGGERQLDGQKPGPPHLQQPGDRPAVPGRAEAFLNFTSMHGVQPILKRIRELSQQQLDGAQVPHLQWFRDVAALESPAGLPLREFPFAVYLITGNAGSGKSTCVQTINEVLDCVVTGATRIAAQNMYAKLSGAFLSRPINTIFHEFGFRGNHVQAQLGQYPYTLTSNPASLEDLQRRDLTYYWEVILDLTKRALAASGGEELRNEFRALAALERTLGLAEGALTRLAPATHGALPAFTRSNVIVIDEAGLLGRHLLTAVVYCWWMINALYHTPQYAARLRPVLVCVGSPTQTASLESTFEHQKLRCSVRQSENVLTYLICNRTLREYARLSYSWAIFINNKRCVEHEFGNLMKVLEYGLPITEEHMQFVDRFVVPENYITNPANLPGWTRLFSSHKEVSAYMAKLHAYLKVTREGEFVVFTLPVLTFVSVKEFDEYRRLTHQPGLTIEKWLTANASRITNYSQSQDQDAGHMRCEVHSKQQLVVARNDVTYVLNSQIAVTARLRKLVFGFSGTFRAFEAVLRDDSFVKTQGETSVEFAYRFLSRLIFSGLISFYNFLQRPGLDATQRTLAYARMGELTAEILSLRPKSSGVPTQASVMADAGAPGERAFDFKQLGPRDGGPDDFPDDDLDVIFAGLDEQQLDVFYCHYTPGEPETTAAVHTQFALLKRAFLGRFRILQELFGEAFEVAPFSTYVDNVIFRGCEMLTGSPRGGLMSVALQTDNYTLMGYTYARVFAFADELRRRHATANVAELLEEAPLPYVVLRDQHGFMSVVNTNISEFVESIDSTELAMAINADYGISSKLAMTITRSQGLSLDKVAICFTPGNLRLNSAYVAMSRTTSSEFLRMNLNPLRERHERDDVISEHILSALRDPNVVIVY

Compound: CC(C)[C@H](N)C(=O)OCCOCn1cnc2c(=O)[nH]c(N)nc21 [Valtrex, reference compound]
- ED50 [1]: 14 mg/kg
- ED50 [2]: 17 mg/kg

Compound: Cc1nc(N(C)C(=O)Cc2ccc(-c3cc(F)ccc3F)cc2)sc1S(N)(=O)=O [Example 6]
- SI porcine PRV [3]: 133
- IC50 [3]: 1500 nM
- IC50 [4]: 30 nM
- SI bovine BHV [4]: 6660
- activity on clinical isolates [5]: active on all the clinical isolates tested to date
- IC50 ([6]; M1 + M2 (UL5 G352V)): > 125000 nM
- Concentration of liberated inorganic phosphate ([7]; inhibitor 0.00128 μM, ATP 0.3 mM): 0.066 mM
- Concentration of liberated inorganic phosphate ([7]; inhibitor 0.00128 μM, ATP 0.4 mM): 0.067 mM
- Concentration of liberated inorganic phosphate ([7]; inhibitor 0.00128 μM, ATP 0.6 mM): 0.085 mM
- Concentration of liberated inorganic phosphate ([7]; inhibitor 0.00128 μM, ATP 0.8 mM): 0.099 mM
- Concentration of liberated inorganic phosphate ([7]; inhibitor 0.00128 μM, ATP 1 mM): 0.108 mM
- Concentration of liberated inorganic phosphate ([7]; inhibitor 0.00128 μM, ATP 3 mM): 0.127 mM
- Concentration of liberated inorganic phosphate ([7]; inhibitor 0.0064 μM, ATP 0.3 mM): 0.040 mM
- Concentration of liberated inorganic phosphate ([7]; inhibitor 0.0064 μM, ATP 0.4 mM): 0.045 mM
- Concentration of liberated inorganic phosphate ([7]; inhibitor 0.0064 μM, ATP 0.6 mM): 0.062 mM
- Concentration of liberated inorganic phosphate ([7]; inhibitor 0.0064 μM, ATP 0.8 mM): 0.064 mM
- Concentration of liberated inorganic phosphate ([7]; inhibitor 0.0064 μM, ATP 1 mM): 0.071 mM
- Concentration of liberated inorganic phosphate ([7]; inhibitor 0.0064 μM, ATP 3 mM): 0.113 mM
- Concentration of liberated inorganic phosphate ([7]; inhibitor 0.032 μM, ATP 0.3 mM): 0.025 mM
- Concentration of liberated inorganic phosphate ([7]; inhibitor 0.032 μM, ATP 0.4 mM): 0.029 mM
- Concentration of liberated inorganic phosphate ([7]; inhibitor 0.032 μM, ATP 0.6 mM): 0.037 mM
- Concentration of liberated inorganic phosphate ([7]; inhibitor 0.032 μM, ATP 0.8 mM): 0.044 mM
- Concentration of liberated inorganic phosphate ([7]; inhibitor 0.032 μM, ATP 1 mM): 0.055 mM
- Concentration of liberated inorganic phosphate ([7]; inhibitor 0.032 μM, ATP 3 mM): 0.085 mM
- Concentration of liberated inorganic phosphate ([7]; inhibitor 0.16 μM, ATP 0.3 mM): 0.017 mM
- Concentration of liberated inorganic phosphate ([7]; inhibitor 0.16 μM, ATP 0.4 mM): 0.022 mM
- Concentration of liberated inorganic phosphate ([7]; inhibitor 0.16 μM, ATP 0.6 mM): 0.029 mM
- Concentration of liberated inorganic phosphate ([7]; inhibitor 0.16 μM, ATP 0.8 mM): 0.033 mM
- Concentration of liberated inorganic phosphate ([7]; inhibitor 0.16 μM, ATP 1 mM): 0.040 mM
- Concentration of liberated inorganic phosphate ([7]; inhibitor 0.16 μM, ATP 3 mM): 0.066 mM
- Concentration of liberated inorganic phosphate ([7]; inhibitor 0.8 μM, ATP 0.3 mM): 0.010 mM
- Concentration of liberated inorganic phosphate ([7]; inhibitor 0.8 μM, ATP 0.4 mM): 0.013 mM
- Concentration of liberated inorganic phosphate ([7]; inhibitor 0.8 μM, ATP 0.6 mM): 0.019 mM
- Concentration of liberated inorganic phosphate ([7]; inhibitor 0.8 μM, ATP 0.8 mM): 0.023 mM
- Concentration of liberated inorganic phosphate ([7]; inhibitor 0.8 μM, ATP 1 mM): 0.027 mM
- Concentration of liberated inorganic phosphate ([7]; inhibitor 0.8 μM, ATP 3 mM): 0.054 mM
- Concentration of liberated inorganic phosphate ([7]; inhibitor 4 μM, ATP 0.3 mM): 0.006 mM
- Concentration of liberated inorganic phosphate ([7]; inhibitor 4 μM, ATP 0.4 mM): 0.007 mM
- Concentration of liberated inorganic phosphate ([7]; inhibitor 4 μM, ATP 0.6 mM): 0.010 mM
- Concentration of liberated inorganic phosphate ([7]; inhibitor 4 μM, ATP 0.8 mM): 0.012 mM
- Concentration of liberated inorganic phosphate ([7]; inhibitor 4 μM, ATP 1 mM): 0.018 mM
- Concentration of liberated inorganic phosphate ([7]; inhibitor 4 μM, ATP 3 mM): 0.044 mM
- Concentration of liberated inorganic phosphate ([7]; inhibitor 20 μM, ATP 0.3 mM): 0.004 mM
- Concentration of liberated inorganic phosphate ([7]; inhibitor 20 μM, ATP 0.4 mM): 0.004 mM
- Concentration of liberated inorganic phosphate ([7]; inhibitor 20 μM, ATP 0.6 mM): 0.006 mM
- Concentration of liberated inorganic phosphate ([7]; inhibitor 20 μM, ATP 0.8 mM): 0.010 mM
- Concentration of liberated inorganic phosphate ([7]; inhibitor 20 μM, ATP 1 mM): 0.008 mM
- Concentration of liberated inorganic phosphate ([7]; inhibitor 20 μM, ATP 3 mM): 0.030 mM
- Concentration of liberated inorganic phosphate ([7]; inhibitor 100 μM, ATP 0.3 mM): 0.005 mM
- Concentration of liberated inorganic phosphate ([7]; inhibitor 100 μM, ATP 0.4 mM): 0.006 mM
- Concentration of liberated inorganic phosphate ([7]; inhibitor 100 μM, ATP 0.6 mM): 0.008 mM
- Concentration of liberated inorganic phosphate ([7]; inhibitor 100 μM, ATP 0.8 mM): 0.008 mM
- Concentration of liberated inorganic phosphate ([7]; inhibitor 100 μM, ATP 1 mM): 0.014 mM
- Concentration of liberated inorganic phosphate ([7]; inhibitor 100 μM, ATP 3 mM): 0.032 mM
- Ki ([7]; read-out: in vitro ATPase inhibition wild-type HSV-1 (F) Ki, nonlinear curve regression): 7 nM
- type of ATPase inhibition (mechanism) [7]: un-
- in vivo lethal challenge model HSV-2 MS ED50 [1]: 0.5 mg/kg
- in vivo lethal challenge model HSV-1 Walkie ED50 [2]: >0.5 mg/kg

Compound: CNS(=O)(=O)c1sc(N(C)C(=O)Cc2ccc(-c3ccccc3)cc2)nc1C [Example 4]
- IC50 [8, 10]: 0.5 nM
- SI Wild-type HSV-1 (F) [8]: 1E+05
- IC50 [9]: 50 nM
- SI human HSV-2 G [9]: 5000
- SI porcine PRV [3]: 66
- IC50 [3]: 3000 nM
- IC50 [4]: 150 nM
- SI bovine BHV [4]: 400
- activity on clinical isolates [5]: active on all the clinical isolates tested to date
- IC50 ([6]; Mutant 2 (UL5 K356N)): > 250000 nM
- IC50 ([6]; Mutant 6 (UL52 A897T)): > 1000 nM
- in vivo lethal challenge model HSV-2 MS ED50 [1]: 3 mg/kg
- in vivo lethal challenge model HSV-1 Walkie ED50 [2]: 1 mg/kg

Compound: Cc1nc(N(C)C(=O)Cc2ccc(-c3ccccc3)cc2)sc1S(N)(=O)=O [Example 5]
- IC50 [9]: 5 nM
- SI human HSV-2 G [9]: 50000
- SI porcine PRV [3]: 13
- IC50 [3]: 8000 nM
- IC50 [4]: 50 nM
- SI bovine BHV [4]: 5000
- activity on clinical isolates [5]: active on all the clinical isolates tested to date
- in vivo lethal challenge model HSV-2 MS ED50 [1]: 1.1 mg/kg
- in vivo lethal challenge model HSV-1 Walkie ED50 [2]: 0.5 mg/kg

Compound: Cc1nc(N(C)C(=O)Cc2ccc(-c3ccccn3)cc2)sc1S(N)(=O)=O [Example 7]
- IC50 ([8]; Human alphaherpesvirus 1, read-out: IC50 Wild-type HSV-1 (F)): 20 nM
- SI Wild-type HSV-1 (F) [8]: 2500
- IC50 ([9]; Human alphaherpesvirus 2): 20 nM
- SI human HSV-2 G [9]: 3000
- SI porcine PRV [3]: >50
- IC50 ([3]; Sus scrofa): 5000 nM
- IC50 ([4]; Bos taurus): 125 nM
- SI bovine BHV [4]: 240
- activity on clinical isolates [5]: active on all the clinical isolates tested to date
- Ki [7]: 30 nM
- type of ATPase inhibition (mechanism) [7]: uncom-
- ED50 [1]: ~0.5 mg/kg
- ED50 [2]: 0.5 mg/kg

Compound: CNS(=O)(=O)c1sc(N(C)C(=O)Nc2ccc(-c3ccccc3)cc2)nc1C [Example 3]
- IC50 [8, 10]: 1 nM
- SI Wild-type HSV-1 (F) [8]: 3E+05
- IC50 [9]: 5 nM
- SI human HSV-2 G [9]: 25000
- IC50 ([6]; mutant not named): > 250000 nM
- in vivo lethal challenge model HSV-2 MS ED50 [1]: 11 mg/kg
- in vivo lethal challenge model HSV-1 Walkie ED50 [2]: 8 mg/kg

Compound: CNS(=O)(=O)c1sc(N(C)C(=O)Nc2ccc(N3CCOCC3)cc2)nc1C [Example 2]
- IC50 [8, 10]: 500 nM
- SI Wild-type HSV-1 (F) [8]: 400
- IC50 [9]: 1500 nM
- SI human HSV-2 G [9]: 200
- in vivo lethal challenge model HSV-2 MS ED50 [1]: weak
- in vivo lethal challenge model HSV-1 Walkie ED50 [2]: 26 mg/kg

Reference: patent publication US20020160932A1, “Uncompetitive inhibitors of helicase-primase” (priority 2000, published 2002)
